Measurements: ChEMBL document CHEMBL4261501, “Design, synthesis and biological evaluation of imidazopyridine-propenone conjugates as potent tubulin inhibitors” (Medchemcomm, 2017)
pIC50: −log10 of the molar value. Calls of active or inactive are those of the source. No cut-off for these calls is given here.

Tests used:
DU-145 = assay: Cytotoxicity against human DU145 cells after 48 hrs by MTT assay; assay type: functional, cell-based; conditions: DU-145, 48 h
A549 [1] = assay: cells; conditions: Homo sapiens, A549, 48 h
Description: Cytotoxicity against human A549 cells after 48 hrs by MTT assay

HeLa = assay: cells; conditions: Homo sapiens, 48 h
Description: Cytotoxicity against human HeLa cells after 48 hrs by MTT assay

MCF7 = assay: cells; conditions: Homo sapiens, MCF7, 48 h
Description: Cytotoxicity against human MCF7 cells after 48 hrs by MTT assay

A549 [2] = assay: Induction of apoptosis in human A549 cells assessed as cytoplasmic condensation at 0.5 uM after 48 hrs by Hoechst 33258 staining based fluorescence microscopic analysis; assay type: functional, cell-based
A549 [3] = assay: Cell cycle arrest in human A549 cells assessed as accumulation at sub-G1 phase at 0.5 uM after 48 hrs by propidium iodide staining based flow cytometry (reference value: 1.11%); assay type: functional
A549 [4] = assay: Cell cycle arrest in human A549 cells assessed as accumulation at sub-G1 phase at 1 uM after 48 hrs by propidium iodide staining based flow cytometry (reference value: 1.11%); assay type: functional
A549 [5] = assay: Cell cycle arrest in human A549 cells assessed as accumulation at G0/G1 phase at 0.5 uM after 48 hrs by propidium iodide staining based flow cytometry (reference value: 90.52%); assay type: functional
A549 [6] = assay: Cell cycle arrest in human A549 cells assessed as accumulation at G0/G1 phase at 1 uM after 48 hrs by propidium iodide staining based flow cytometry (reference value: 90.52%); assay type: functional
A549 [7] = assay: Cell cycle arrest in human A549 cells assessed as accumulation at S phase at 0.5 uM after 48 hrs by propidium iodide staining based flow cytometry (reference value: 1.92%); assay type: functional
A549 [8] = assay: Cell cycle arrest in human A549 cells assessed as accumulation at S phase at 1 uM after 48 hrs by propidium iodide staining based flow cytometry (reference value: 1.92%); assay type: functional
A549 [9] = assay: Cell cycle arrest in human A549 cells assessed as accumulation at G2/M phase at 0.5 uM after 48 hrs by propidium iodide staining based flow cytometry (reference value: 7.4%); assay type: functional
A549 [10] = assay: Cell cycle arrest in human A549 cells assessed as accumulation at G2/M phase at 1 uM after 48 hrs by propidium iodide staining based flow cytometry (reference value: 7.4%); assay type: functional
Tubulin (Homo sapiens) = Tubulin (Homo sapiens) (UniProt P68371+Q9H4B7+P0DPH7+P68366+Q13509+Q71U36+P04350+Q3ZCM7+P07437+P68363+Q9BQE3+Q6PEY2+Q13885+Q9BVA1+Q9BUF5); assay: Inhibition of tubulin polymerization (unknown origin) at 3 uM after 1 hr by fluorescence assay relative to control; assay type: protein-complex assay
Tubulin = assay: Inhibition of tubulin polymerization (unknown origin) after 1 hr by fluorescence assay; assay type: protein-complex assay, Homo sapiens
A549 [11] = assay: Disruption of microtubule organization in human A549 cells at 0.5 uM after 48 hrs by fluorescence microscopic analysis; assay type: cell-based
A549 [12] = assay: Induction of apoptosis in human A549 cells assessed as formation of apoptotic bodies at 0.5 uM after 48 hrs by Hoechst 33258 staining based fluorescence microscopic analysis; assay type: functional, cell-based
A549 [13] = assay: Induction of apoptosis in human A549 cells assessed as nuclear fragmentation at 0.5 uM after 48 hrs by Hoechst 33258 staining based fluorescence microscopic analysis; assay type: functional, cell-based
A549 [14] = assay: Induction of mitochondrial membrane potential loss in human A549 cells assessed as collapse of the mitochondrial membrane potential at 0.5 uM after 48 hrs by JC1 staining based flow cytomtery (reference value: 3.5%); assay type: functional
A549 [15] = assay: Induction of mitochondrial membrane potential loss in human A549 cells assessed as intact mitochondrial membrane at 0.5 uM after 48 hrs by JC1 staining based flow cytomtery (reference value: 96.3%); assay type: functional
A549 [16] = assay: Induction of mitochondrial membrane potential loss in human A549 cells assessed as collapse of the mitochondrial membrane potential at 1 uM after 48 hrs by JC1 staining based flow cytomtery (reference value: 3.5%); assay type: functional
A549 [17] = assay: Induction of mitochondrial membrane potential loss in human A549 cells assessed as intact mitochondrial membrane at 1 uM after 48 hrs by JC1 staining based flow cytomtery (reference value: 96.3%); assay type: functional
A549 [18] = assay: Induction of apoptosis in human A549 cells assessed as necrotic cells at 0.5 uM after 48 hrs by Annexin V-FITC/propidium iodide staining based flow cytometry (reference value: 1.17%); assay type: functional
A549 [19] = assay: Induction of apoptosis in human A549 cells assessed as late apoptotic cells at 0.5 uM after 48 hrs by Annexin V-FITC/propidium iodide staining based flow cytometry (reference value: 3.83%); assay type: functional
A549 [20] = assay: Induction of apoptosis in human A549 cells assessed as live cells at 0.5 uM after 48 hrs by Annexin V-FITC/propidium iodide staining based flow cytometry (reference value: 93.97%); assay type: functional
A549 [21] = assay: Induction of apoptosis in human A549 cells assessed as early apoptotic cells at 0.5 uM after 48 hrs by Annexin V-FITC/propidium iodide staining based flow cytometry (reference value: 1.03%); assay type: functional
A549 [22] = assay: Induction of apoptosis in human A549 cells assessed as necrotic cells at 1 uM after 48 hrs by Annexin V-FITC/propidium iodide staining based flow cytometry (reference value: 1.17%); assay type: functional
A549 [23] = assay: Induction of apoptosis in human A549 cells assessed as late apoptotic cells at 1 uM after 48 hrs by Annexin V-FITC/propidium iodide staining based flow cytometry (reference value: 3.83%); assay type: functional
A549 [24] = assay: Induction of apoptosis in human A549 cells assessed as live cells at 1 uM after 48 hrs by Annexin V-FITC/propidium iodide staining based flow cytometry (reference value: 93.97%); assay type: functional
A549 [25] = assay: Induction of apoptosis in human A549 cells assessed as early apoptotic cells at 1 uM after 48 hrs by Annexin V-FITC/propidium iodide staining based flow cytometry (reference value: 1.03%); assay type: functional

COc1ccc(-c2nc3ccccn3c2C(=O)/C=C\Nc2cc(OC)cc(OC)c2)cc1
pIC50 (DU-145): 5.20
pIC50 (A549 [1]): 5.35
pIC50 (HeLa): 5.34
pIC50 (MCF7): 4.83

COc1ccc(-c2nc3ccccn3c2C(=O)/C=C\Nc2ccc3cc[nH]c3c2)cc1
pIC50 (DU-145): 4.97
pIC50 (A549 [1]): 5.06
pIC50 (HeLa): 4.81
pIC50 (MCF7): 4.71

COc1ccc(N/C=C\C(=O)c2c(-c3ccccc3)nc3ccccn23)cc1
pIC50 (DU-145): 5.66
pIC50 (A549 [1]): 5.80
pIC50 (HeLa): 4.83
pIC50 (MCF7): 5.12

COc1ccc(-c2nc3ccccn3c2C(=O)/C=C\Nc2ccc(F)cc2)cc1
pIC50 (DU-145): 5.21
pIC50 (A549 [1]): 5.49
pIC50 (HeLa): 4.96
pIC50 (MCF7): 4.89

COc1ccc(-c2nc3ccccn3c2C(=O)/C=C\Nc2ccc3ncccc3c2)cc1
pIC50 (DU-145): 5.33
pIC50 (A549 [1]): 5.92
pIC50 (HeLa): 5.31
pIC50 (MCF7): 4.93

COc1cc(N/C=C\C(=O)c2c(-c3ccc(Cl)cc3)nc3ccccn23)cc(OC)c1
pIC50 (DU-145): 4.92
pIC50 (A549 [1]): 5.00
pIC50 (HeLa): 4.84
pIC50 (MCF7): 4.87

COc1ccc(N/C=C\C(=O)c2c(-c3ccc(Cl)cc3)nc3ccccn23)cc1
pIC50 (DU-145): 4.97
pIC50 (A549 [1]): 5.19
pIC50 (HeLa): 4.93
pIC50 (MCF7): 4.79

O=C(/C=C\Nc1ccc(Br)cc1)c1c(-c2ccccc2)nc2ccccn12
pIC50 (DU-145): 5.74
pIC50 (A549 [1]): 5.87
pIC50 (HeLa): 5.69
pIC50 (MCF7): 5.06

O=C(/C=C\Nc1ccc2[nH]ccc2c1)c1c(-c2ccc(Cl)cc2)nc2ccccn12
pIC50 (DU-145): 5.89
pIC50 (A549 [1]): 5.99
pIC50 (HeLa): 5.49
pIC50 (MCF7): 5.15

O=C(/C=C\Nc1ccc2ncccc2c1)c1c(-c2ccccc2)nc2ccccn12
Activity (A549 [2]): Active
pIC50 (DU-145): 5.97
Activity (A549 [3]): 0.5%
Activity (A549 [4]): 0.91%
Activity (A549 [5]): 82.37%
Activity (A549 [6]): 66.32%
Activity (A549 [7]): 2.77%
Activity (A549 [8]): 4.28%
Activity (A549 [9]): 15.69%
Activity (A549 [10]): 30.5%
inhibition (Tubulin (Homo sapiens)): 68.2%
pIC50 (Tubulin): 5.74
Activity (A549 [11]): Active
Activity (A549 [12]): Active
Activity (A549 [13]): Active
Activity (A549 [14]): 22.5%
Activity (A549 [15]): 73.5%
Activity (A549 [16]): 31.7%
Activity (A549 [17]): 60.8%
Activity (A549 [18]): 0.75 - 0.8%
Activity (A549 [19]): 11.35 - 11.4%
Activity (A549 [20]): 64.98 - 65%
Activity (A549 [21]): 22.9 - 22.92%
Activity (A549 [22]): 1.07 - 1.1%
Activity (A549 [23]): 18.5 - 18.52%
Activity (A549 [24]): 45.4 - 45.42%
Activity (A549 [25]): 34.99 - 35%
pIC50 (A549 [1]): 6.06
pIC50 (HeLa): 5.91
pIC50 (MCF7): 5.74

COC(=O)Nc1nc2cc(C(=O)c3cccs3)ccc2[nH]1 [NOCODAZOLE]
pIC50 (DU-145): 5.90
Activity (A549 [4]): 0.79%
Activity (A549 [6]): 66.92%
Activity (A549 [8]): 4.55%
Activity (A549 [10]): 29.68%
inhibition (Tubulin (Homo sapiens)): 66.8%
Activity (A549 [11]): Active
Activity (A549 [16]): 22.6%
Activity (A549 [17]): 73.5%
Activity (A549 [22]): 1.1 - 1.11%
Activity (A549 [23]): 16.2 - 16.23%
Activity (A549 [24]): 51.48 - 51.5%
Activity (A549 [25]): 31.19 - 31.2%
pIC50 (A549 [1]): 5.86
pIC50 (HeLa): 5.79
pIC50 (MCF7): 5.96

O=C(/C=C\Nc1ccc(Br)cc1)c1c(-c2ccc(Cl)cc2)nc2ccccn12
Activity (A549 [2]): Active
pIC50 (DU-145): 5.82
Activity (A549 [3]): 0.66%
Activity (A549 [4]): 0.86%
Activity (A549 [5]): 83.28%
Activity (A549 [6]): 65.94%
Activity (A549 [7]): 2.68%
Activity (A549 [8]): 5.62%
Activity (A549 [9]): 14.4%
Activity (A549 [10]): 29.84%
inhibition (Tubulin (Homo sapiens)): 66.5%
pIC50 (Tubulin): 5.71
Activity (A549 [11]): Active
Activity (A549 [12]): Active
Activity (A549 [13]): Active
Activity (A549 [14]): 20.3%
Activity (A549 [15]): 75.9%
Activity (A549 [16]): 30.1%
Activity (A549 [17]): 63.9%
Activity (A549 [18]): 1.6 - 1.64%
Activity (A549 [19]): 9.9 - 9.94%
Activity (A549 [20]): 66.5 - 66.51%
Activity (A549 [21]): 21.9 - 21.91%
Activity (A549 [22]): 1.38 - 1.4%
Activity (A549 [23]): 18.06 - 18.1%
Activity (A549 [24]): 46.59 - 46.6%
Activity (A549 [25]): 33.97 - 34%
pIC50 (A549 [1]): 6.03
pIC50 (HeLa): 5.83
pIC50 (MCF7): 5.57

O=C(/C=C\Nc1cnc2ccccc2c1)c1c(-c2ccccc2)nc2ccccn12
pIC50 (DU-145): 5.61
pIC50 (A549 [1]): 5.76
pIC50 (HeLa): 5.51
pIC50 (MCF7): 5.29

O=C(/C=C\Nc1cnc2ccccc2c1)c1c(-c2ccc(Cl)cc2)nc2ccccn12
pIC50 (DU-145): 5.38
pIC50 (A549 [1]): 5.54
pIC50 (HeLa): 5.43
pIC50 (MCF7): 4.72

O=C(/C=C\Nc1ccc2ncccc2c1)c1c(-c2ccc(Cl)cc2)nc2ccccn12
pIC50 (DU-145): 4.87
pIC50 (A549 [1]): 4.88
pIC50 (HeLa): 4.79
pIC50 (MCF7): 4.64

O=C(/C=C\Nc1ccc2cc[nH]c2c1)c1c(-c2ccc(Cl)cc2)nc2ccccn12
pIC50 (DU-145): 5.58
pIC50 (A549 [1]): 5.64
pIC50 (HeLa): 4.96
pIC50 (MCF7): 5.02

COc1cc(N/C=C\C(=O)c2c(-c3ccc(Cl)cc3)nc3ccccn23)cc(OC)c1OC
pIC50 (DU-145): 5.49
pIC50 (A549 [1]): 5.94
pIC50 (HeLa): 5.52
pIC50 (MCF7): 5.47

COc1ccc(-c2nc3ccccn3c2C(=O)/C=C\Nc2ccc(Br)cc2)cc1
pIC50 (DU-145): 5.84
pIC50 (A549 [1]): 5.87
pIC50 (HeLa): 5.34
pIC50 (MCF7): 5.01

COc1ccc(-c2nc3ccccn3c2C(=O)/C=C\Nc2cnc3ccccc3c2)cc1
pIC50 (DU-145): 5.28
pIC50 (A549 [1]): 5.98
pIC50 (HeLa): 5.03
pIC50 (MCF7): 4.83

COc1ccc(N/C=C\C(=O)c2c(-c3ccc(OC)cc3)nc3ccccn23)cc1
pIC50 (DU-145): 4.95
pIC50 (A549 [1]): 4.90
pIC50 (HeLa): 4.70
pIC50 (MCF7): 4.78

COc1ccc(-c2nc3ccccn3c2C(=O)/C=C\Nc2ccc3[nH]ccc3c2)cc1
pIC50 (DU-145): 4.95
pIC50 (A549 [1]): 4.96
pIC50 (HeLa): 4.87
pIC50 (MCF7): 4.72

COc1cc(N/C=C\C(=O)c2c(-c3ccccc3)nc3ccccn23)cc(OC)c1
pIC50 (DU-145): 5.53
pIC50 (A549 [1]): 5.65
pIC50 (HeLa): 5.51
pIC50 (MCF7): 4.99
